Test results: ChEMBL document CHEMBL1130291, “Synthesis of trimethylated phosphonium and arsonium analogues of the osmoprotectant glycine betaine; contrasted biological activities in two bacterial species” (Bioorg Med Chem Lett, 1997)
Calls of active or inactive are those of the source. The rule behind the calls is not given here.

What was measured:
Type in all cases: functional, organism-based
Escherichia coli [1] = experiment: Inhibitory activity against growth of Escherichia coli MC4100 without NaCl; No effect
Sinorhizobium meliloti [2] = experiment: Inhibition of the growth of Rhizobium meliloti was observed at 1 mM by inoculation of 0.5 M NaCl; No growth was observed
Sinorhizobium meliloti [3] = experiment: Osmoprotective activity of compound in Rhizobium meliloti 102F34 by restoring its growth rate was evaluated; Highly toxic
Escherichia coli [4] = experiment: Inhibitory activity against growth of Escherichia coli MC4100 in presence 0.8M NaCl; Strong inhibition
Sinorhizobium meliloti [5] = experiment: Osmoprotective activity of compound in Rhizobium meliloti 102F34 by restoring its growth rate was evaluated; Highly osmoprotective

In the case of `C[As+](C)(C)CC(=O)[O-]`, the Activity (Escherichia coli [1]) is reported as “inactive”, the Activity (Sinorhizobium meliloti [2]) is reported as “No growth” and the Activity (Sinorhizobium meliloti [3]) is reported as “Toxic”. For the same molecule, the Activity (Escherichia coli [4]) was “No growth”.

With `C[P+](C)(C)CC(=O)[O-]` the Activity (Escherichia coli [1]) was “inactive”, the Activity (Sinorhizobium meliloti [2]) was “No growth” and the Activity (Sinorhizobium meliloti [3]) was “Toxic”. The Activity (Escherichia coli [4]) was “No growth”.

In the case of `C[N+](C)(C)CC(=O)O`, the Activity (Escherichia coli [1]) is reported as “inactive”, the Activity (Sinorhizobium meliloti [5]) is reported as “Highly osmoprotective” and the Activity (Escherichia coli [4]) is reported as “Highly osmoprotective”.
